In assay [1] the target is Flavobacterium heparinum chondroitinase AC (77,000 Dalton, purified, Sequence ID No. 2) (Pedobacter heparinus, UniProt Q59288). Particulars: 0.1 mM reagent; 20 mM Tris buffer, pH 8.0; 0.5 mg/ml chondroitin sulfate A as substrate; none = 100. Here is the method: (§1) Chondroitinase activity was determined by a modification of the spectrophotometric assay described by Yang, et al., J. Biol. Chem., 160(30):1849-1857, 1985. Chondroitinases degrade their respective substrates by an eliminative reaction resulting in the formation of 4,5-unsaturated sulfated disaccharides which absorb ultraviolet light at 232 nm. Reaction buffers contained 50 mM Tris, pH 8.0 and 0.5 mg/ml substrate; dermatan sulfate for chondroitinase B activity, chondroitin sulfate A for chondroitinase AC activity. A continuous spectrophotometric assay is carried out by transferring a 10 to 50 μl sample to a quartz cuvette and adding the reaction buffer to make a final volume of one ml. The cuvette is placed in a Beckman DU 640 spectrophotometer, controlled to maintain a constant temperature of 30° C., and the increase in absorbance at 232 nm monitored for three to five minutes. Activities are calculated using the molar extinction coefficient for chondroitin sulfate, 5.1×103 M^-1, and are expressed in international units, IU, where one IU is the amount of enzyme required to catalyze the formation of one μmole unsaturated product per minute.

For assay [2], the target named is Flavobacterium heparinum chondroitinase B (55,000 Dalton, purified, Sequence ID No. 4) (Pedobacter heparinus, UniProt Q46079). The conditions noted are these: 0.1 mM reagent; 20 mM Tris buffer, pH 8.0; 0.5 mg/ml dermatan sulfate as substrate; none = 100. Here is the method: as §1

Structures are written as SMILES.

The values that follow come from patent US6093563A, “Chondroitin lyase enzymes” (IBEX Technologies R and D, Inc., priority 1994, dated 2000).

Sequence of Flavobacterium heparinum chondroitinase B (55,000 Dalton, purified, Sequence ID No. 4) (Q46079 26-506): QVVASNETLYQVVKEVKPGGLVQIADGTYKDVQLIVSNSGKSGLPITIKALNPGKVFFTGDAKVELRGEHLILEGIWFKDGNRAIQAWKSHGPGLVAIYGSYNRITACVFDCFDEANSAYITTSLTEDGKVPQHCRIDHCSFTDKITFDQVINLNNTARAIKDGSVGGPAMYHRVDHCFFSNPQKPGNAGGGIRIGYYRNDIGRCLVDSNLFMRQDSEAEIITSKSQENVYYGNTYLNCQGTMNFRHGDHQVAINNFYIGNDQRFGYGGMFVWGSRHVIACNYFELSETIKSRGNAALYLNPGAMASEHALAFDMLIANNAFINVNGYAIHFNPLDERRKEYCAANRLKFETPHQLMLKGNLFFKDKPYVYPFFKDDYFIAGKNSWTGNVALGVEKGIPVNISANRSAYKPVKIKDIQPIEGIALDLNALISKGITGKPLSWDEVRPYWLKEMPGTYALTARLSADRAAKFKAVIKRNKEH
Sequence of Flavobacterium heparinum chondroitinase AC (77,000 Dalton, purified, Sequence ID No. 2) (Q59288 23-700): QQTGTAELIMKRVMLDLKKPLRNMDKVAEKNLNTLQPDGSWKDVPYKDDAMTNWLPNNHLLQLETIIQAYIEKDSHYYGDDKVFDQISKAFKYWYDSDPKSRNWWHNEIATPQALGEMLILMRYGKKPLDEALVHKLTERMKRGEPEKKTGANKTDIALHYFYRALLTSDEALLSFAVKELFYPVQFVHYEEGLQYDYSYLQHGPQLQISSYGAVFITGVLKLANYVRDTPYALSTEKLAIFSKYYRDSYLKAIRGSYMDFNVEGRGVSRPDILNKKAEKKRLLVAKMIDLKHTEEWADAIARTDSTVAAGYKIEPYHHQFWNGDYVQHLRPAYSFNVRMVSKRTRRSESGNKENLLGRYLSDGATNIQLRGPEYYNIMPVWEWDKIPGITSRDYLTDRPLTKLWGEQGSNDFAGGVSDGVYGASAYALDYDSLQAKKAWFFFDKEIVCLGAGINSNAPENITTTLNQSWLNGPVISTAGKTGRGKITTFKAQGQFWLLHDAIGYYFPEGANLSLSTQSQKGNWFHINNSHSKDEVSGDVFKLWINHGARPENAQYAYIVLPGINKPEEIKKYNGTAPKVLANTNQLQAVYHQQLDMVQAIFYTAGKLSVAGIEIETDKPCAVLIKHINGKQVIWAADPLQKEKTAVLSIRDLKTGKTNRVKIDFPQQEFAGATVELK

With `O=C(O)CN(CCN(CC(=O)O)CC(=O)O)CC(=O)O` [EDTA], in assay [1], the “chondroitinase AC relative activity (%)” value was 97%. The “chondroitinase B relative activity (%)” value in assay [2] stood at 1%.
